For data set [1], the system named is NCI-N87 cells. As to the kind of experiment: MTT cytotoxicity assay. The following applies: read-out: Cytotoxic activity IC50±SEM. Format: cell-based, human. A general note: Tetrazolium assays rely on reduction of a dye to a coloured formazan, in cell work by metabolically active cells.
Data set [2] relates to CB2R. More on the design: method as in PMID 7776818, PMID 10188977, PMID 36657299, PMID 20393015. The following applies: cited from earlier work.
In data set [3] the test system is AGS cells. The experiment in a line: MTT cytotoxicity assay. Conditions: read-out: Cytotoxic activity IC50±SEM. Format: cell-based, human. As to the method: (§1) Cell viability was checked with the MTT assay at 48 h and 72 h [24]in HGC27-S/R and AGS gastric cancer cell lines. On day 1, 5000 cells/well were seeded into 96-well plates in a volume of 100 µL. On day 2, each drug was added at the concentrations: 0.1µM, 1µM, 10µM, 30µM, 50µM, 100µM. In all the experiments, the various drug-solvents (ethanol, DMSO) were added in each control to evaluate a possible solvent cytotoxicity. After the established incubation time with drugs (48 h, 72 h), MTT (0.5 mg/mL) was added to each well, and after 3 h incubation at 37 °C, the supernatant was removed. The formazan crystals were solubilized using 100 µL of DMSO and the absorbance values at 570 and 630 nm were determined on the microplate reader Victor 3 from PerkinElmer Life Sciences. Results are expressed as mean ± SD of 3 independent experiments in triplicate.

Data set [4] concerns HGC27-S cells. The experiment in a line: MTT cytotoxicity assay. Format: cell-based, human. Conditions: read-out: Cytotoxic activity IC50±SEM. As to the method:
as §1

In data set [5] the test system is HGC27-R cells. The experiment in a line: MTT cytotoxicity assay. The class given is cell-based, human. Conditions: read-out: Cytotoxic activity IC50±SEM. As to the method:
as §1

For data set [6], the system named is NCI-N87 cells. The experiment in a line: Muse caspase 3/7 activation assay. Format: cell-based, human. The source says: (§2) After the specified drug treatments, the cells were processed using the Muse Annexin V/Dead Cell Assay Kit (Luminex Corporation, Austin, USA) for quantitative analysis of live, early/ late apoptotic, and dead cells on a Muse Cell Analyzer. Briefly, the assay utilized Annexin V to detect phosphatidylserine on the external membrane of apoptotic cells. The fluorescent signal emitted by dye-conjugated antibodies was detected by flow cytometry technology (Muse Cell Analyzer, Luminex Corporation, Austin, USA). 7-Amino-Actinomycin D (7-AAD) dead cell marker was also used. The cells were then analyzed according to the user’s guide. […] After 48 h treatments the cells were processed according to the user’s guide and analyzed with the Muse caspase-3/7 kit (Millipore).The assay provides the relative percentage of living, early/late apoptotic or dead cells.

In data set [7] the test system is HGC27-S cells. The experiment in a line: Muse caspase 3/7 activation assay. Format: cell-based, human. Conditions: 48 h.
Description: as §2

Data set [8] has as its system HGC27-R cells. The experiment in a line: Muse caspase 3/7 activation assay. The class given is cell-based, human. Conditions: 48 h.
Description: as §2

Data set [9] has as its system HGC27-S cells. As to the kind of experiment: Muse Ki67 cell proliferation assay. The class given is cell-based, human. The source says:
After the specified drug treatments, the cells were processed with the Muse Ki67 cell proliferation kit, which identified actively proliferating cells based on the expression of Ki67, a nuclear protein present in the active phases of the cell cycle (G1, S, G2, and M phases) and absent in the resting G0 phase. The Muse Ki67 Proliferation Assay was used with the Guava Muse Cell Analyzer according to the manufacturer’s instructions (Luminex Corporation, Austin, USA). Briefly, the cells were stained after fixation and permeabilization procedures, using Hu Ki67 or Hu IgG1 control fluorochrome-conjugated antibodies to distinguish Ki67(+) or Ki67(-) cells, respectively. The software provided the percentage of both Ki67(+) and Ki67(-) cells.

For data set [10], the system named is HGC27-S cells. The experiment in a line: Western blot of proliferation pathway proteins. The class given is cell-based, human. Conditions: 48 h, 6 µM AM630, 10 µM agonists. As to the method: Western Blotting analysis was performed as previously described in both HGC27-S/R and AGS cells. Briefly, for each experimental condition the cells were lysed in ice-cold lysis buffer (50 mM Tris, 10 mM EDTA, 1% v/v Triton-X100), supplemented with the protease/phosphatase inhibitor cocktail set (Merck KGaA, Darmstadt, Germany), incubated on ice for 15 min and centrifuged at 13,000 × g for 15 min at 4 °C. Protein extracts were quantified by Micro BCA™ Protein Assay Kit (Thermo Fisher Scientific Inc., MA USA) and 40 µg of total protein extract was loaded on SDS-PAGE and immunoblotted with the following antibodies: CB1R and CB2R (1:500, rabbit polyclonal, Abcam, Cambridge, UK), P-TSC2 (Ser939) and TSC2 (1:1000Cell Signaling, Beverly, MA, USA), PI3K (1:1000Cell Signaling, Beverly, MA, USA), P-P70 (Thr389) and P70 (1:1000Cell Signaling, Beverly, MA, USA), P-Akt (Ser473 Thr308) and Akt (1:1000Cell Signaling, Beverly, MA, USA), P-S6 (Ser235/236) and S6 (1:1000Cell Signaling, Beverly, MA, USA), 4EBP1(1:1000Cell Signaling, Beverly, MA, USA), P-ERK(Thr202/Tyr204) and ERK (1:1000Cell Signaling, Beverly, MA, USA), PPRγ (1:1000Cell Signaling, Beverly, MA, USA), Phospho-SAPK/JNK (Thr183/Tyr185) and JNK2 (1:1000 Cell Signaling, Beverly, MA, USA), Phospho-c-Jun (Ser63) and c-Jun (1:1000 Cell Signaling, Beverly, MA, USA), caspase 3/7 (1:1000 Cell Signaling, Beverly, MA, USA), Phospho-βcatenin (Ser675) and βcatenin (1:1000 Cell Signaling, Beverly, MA, USA), vimentin (1:1000Cell Signaling, Beverly, MA, USA), P-cofillin (Ser3) and cofillin (1:1000Cell Signaling, Beverly, MA, USA), actin (1:4000Cell Signaling, Beverly, MA, USA). Subsequently, the membranes were incubated with the corresponding horseradish peroxidase (HRP)-conjugated secondary antibodies (Bio-Rad, Hercules, CA, USA). An enhanced chemiluminescence kit (Bio-Rad, Hercules, CA, USA) was used. […] Total protein expression was quantified using the ImageJ software (http://rsb.info.nih.gov/ij/). […]
Background: Immunoblotting shows a protein as a band on a membrane.

The mark [11] stands for this setting: NCI-N87, combination with 2 nM PTX, PTX alone 14.6%.
The mark [12] stands for this setting: NCI-N87, single treatment (2 nM PTX, 6 µM AM630, 10 µM others), untreated 6.35%.
The mark [13] stands for this setting: combination with 4 nM PTX, PTX alone 26.2%.
[14] abbreviates: single treatment (4 nM PTX, 6 µM AM630, 10 µM others), untreated 13.05%.
The mark [15] stands for this setting: single treatment (4 nM PTX, 6 µM AM630, 10 µM others), untreated 18.9%.
The mark [16] stands for this setting: HGC27-S, representative flow cytometry chart, 48 h, 10 µM CC48, PTX, single or combined as labelled.

As a reminder, the IC50 is the concentration that gives 50% inhibition. The term EC50 denotes the concentration giving half of the maximal effect.

Where two headings read alike, the source gives them in different places.

`COc1ccc(C(=O)c2c(C)n(CCN3CCOCC3)c3cc(I)ccc23)cc1` [AM630, reference compound]: the IC50 in [1] (48h) amounted to 22.7 µM; in [1] (72h) it was 15.6 ± 0.26 µM; in data set [3] (48h) it was 13.4 µM; in data set [3] (72h) it was 7.5 ± 1.2 µM; in data set [4] (48h), 20.4 µM; in data set [4] (72h), 13.7 ± 1.4 µM. Further, the IC50 came out at 19.6 ± 6.15 µM in data set [5] (48h) and 19.1 ± 0.93 µM in data set [5] (72h). Besides, in data set [2], the EC50 is 0.0009 µM. In addition, the “cells with activated caspase 3/7” value was 15.9% in data set [6] (setting [11]) and 9.5% in data set [6] (setting [12]). Also, the “apoptotic cells (caspase 3/7 activation)” value is listed as 44.3% in data set [7] (setting [13]), “only a slight increase” in [7] (setting [14]), 62.4% in data set [8] (combination with 4 nM PTX) and 32.9% in data set [8] (setting [15]). Also, in data set [9], the “percentage of Ki67+ cells” value worked out at 40.1%. Moreover, the “expression/activation of PI3K/Akt/mTOR and ERK1/2 pathway proteins (western blot)” value (“expression/activation” for short) in data set [10] is recorded as “significant decrease in PI3K protein expression”.
For the compound `CCCCCNc1ccccc1C(=O)NC12CC3CC(CC(C3)C1)C2` [ASF151], the IC50 in [1] (48h) turned out to be 33.1 µM; in data set [1] (72h) it was 29.3 ± 3.84 µM; in data set [3] (48h) it was 33 µM; in data set [3] (72h), 42.3 ± 2.2 µM; in data set [4] (48h), 49 µM; in data set [4] (72h) it was 30.1 ± 0.95 µM. Also, the half-inhibitory concentration (IC50) in data set [5] (48h) was 27.4 µM; in [5] (72h) it was 28 ± 0.63 µM. In addition, the EC50 in data set [2] is 0.56 µM. Further, the “cells with activated caspase 3/7” value in [6] (setting [11]) came to 15.9%; in data set [6] (setting [12]) it was 9.5%. In addition, the “apoptotic cells (caspase 3/7 activation)” value in data set [7] (setting [13]) is reported as “no further increase over PTX”; in data set [7] (setting [14]) it was 20.25%; in data set [8] (combination with 4 nM PTX) it was 50.4%; in data set [8] (setting [15]), 42%. Also, in [9], the “percentage of Ki67+ cells” value is reported as 38.6%. Also, the “expression/activation” value in [10] was “no effect was detected”.
For `O=C(NC12CC3CC(CC(C3)C1)C2)c1ccccc1OCc1ccccc1` [CC48], the IC50 in [1] (Homo sapiens, 48h) is 15.1 µM; in data set [1] (Homo sapiens, 72h) it was 9.42 ± 0.22 µM; in data set [3] (Homo sapiens, 48h), 57 µM; in data set [3] (Homo sapiens, 72h) it was 9.8 µM; in data set [4] (Homo sapiens, 48h), 11.6 µM; in data set [4] (Homo sapiens, 72h), 14.5 ± 0.34 µM. Also, the IC50 in data set [5] (48h) is 21.01 ± 0.002 µM; in data set [5] (Homo sapiens, 48 h), 21 µM; in data set [5] (Homo sapiens, 72 h), 21.2 ± 0.41 µM. Moreover, the EC50 in [2] was 0.124 µM. The “cells with activated caspase 3/7” value in data set [6] (setting [11]) came out at 23.3%; in [6] (setting [12]), 17.4%. Moreover, the dead cells in [6] (NCI-N87, single treatment, control 5.8% / 5.6%) is recorded as 10.4%; in data set [7] (single treatment, untreated 6.6%), “without affecting the number of dead cells”. For the same compound, the “apoptotic cells (caspase 3/7 activation)” value is reported as 62.7% in data set [7] (setting [13]), 21% in data set [7] (setting [14]), 61.4% in data set [8] (combination with 4 nM PTX) and 33.8% in data set [8] (setting [15]). Further, the “percentage of Ki67+ cells” value in [9] (HGC27-S, 48 h, combination with 4 nM PTX (10 µM compound; 6 µM AM630), PTX alone 58.1%) is recorded as 42.3%; in data set [9] (HGC27-S, 48 h, single treatment (10 µM CC48; 4 nM PTX), control 80.50%) it was 75.75%. For the same compound, in data set [9] (setting [16]), the “Ki67(+) cells” value came to 75.75%. Further, in [9] (setting [16]), the “Ki67(-) cells” value was found to be 24.25%. Moreover, the “expression/activation” value in data set [10] is “significant decrease in PI3K protein expression”.

The values are drawn from PMC12265377, “CC48 a new CB2R agonist/FAAH inhibitor dual drug blocks gastric cancer progression and overcomes paclitaxel resistance” (Journal of Experimental & Clinical Cancer Research : CR, 2025).
